{"source": "paper PMC3062473", "about": "(ChemMedChem, 2010)", "key": {"Caspase 3 [1]": {"molecular_target": "T1, Caspase 3 (Homo sapiens, UniProt P42574)", "T1 sequence (P42574 29-175 limits assumed)": "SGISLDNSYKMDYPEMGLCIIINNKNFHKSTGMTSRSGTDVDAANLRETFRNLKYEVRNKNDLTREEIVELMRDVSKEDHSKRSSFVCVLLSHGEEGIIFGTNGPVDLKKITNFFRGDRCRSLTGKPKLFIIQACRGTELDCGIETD", "T1 sequence (P42574 176-277 limits assumed)": "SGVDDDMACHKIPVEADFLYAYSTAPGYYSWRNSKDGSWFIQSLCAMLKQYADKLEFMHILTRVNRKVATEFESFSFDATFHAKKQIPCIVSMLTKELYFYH", "assay": "Reaction Biology caspase panel", "type": "biochemical", "conditions": "read-out: Caspase 3 IC50; (Z-DEVD)2-R110 substrate; three separate experiments"}, "Caspase 4 [2]": {"molecular_target": "T2, Caspase 4 (Homo sapiens, UniProt P49662)", "T2 sequence (P49662 81-270 limits assumed)": "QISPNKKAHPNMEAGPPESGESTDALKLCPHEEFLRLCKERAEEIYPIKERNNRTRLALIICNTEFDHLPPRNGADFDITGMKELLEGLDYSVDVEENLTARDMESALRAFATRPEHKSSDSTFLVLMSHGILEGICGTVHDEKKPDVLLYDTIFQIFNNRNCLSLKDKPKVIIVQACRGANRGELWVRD", "T2 sequence (P49662 290-377 limits assumed)": "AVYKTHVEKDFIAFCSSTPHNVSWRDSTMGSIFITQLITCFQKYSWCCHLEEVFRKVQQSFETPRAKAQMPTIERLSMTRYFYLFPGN", "assay": "Reaction Biology caspase panel", "type": "biochemical", "conditions": "read-out: Caspase 4 IC50; (Z-LEHD)2-R110 substrate; three separate experiments"}, "Caspase 6 [3]": {"molecular_target": "T3, Caspase 6 (Homo sapiens, UniProt P55212)", "T3 sequence (P55212 24-179 limits assumed)": "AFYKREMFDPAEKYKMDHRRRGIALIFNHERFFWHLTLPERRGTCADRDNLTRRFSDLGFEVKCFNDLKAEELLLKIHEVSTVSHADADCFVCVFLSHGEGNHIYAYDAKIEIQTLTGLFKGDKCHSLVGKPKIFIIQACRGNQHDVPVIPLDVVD", "T3 sequence (P55212 194-293 limits assumed)": "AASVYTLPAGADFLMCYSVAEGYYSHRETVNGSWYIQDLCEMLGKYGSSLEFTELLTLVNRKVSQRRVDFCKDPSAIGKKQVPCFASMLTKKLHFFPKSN", "assay": "Reaction Biology caspase panel", "type": "biochemical", "conditions": "read-out: Caspase 6 IC50; (Z-DEVD)2-R110 substrate; three separate experiments"}, "Caspase 8": {"molecular_target": "Caspase 8 (Homo sapiens, UniProt Q14790)", "sequence (Q14790 217-374 limits assumed)": "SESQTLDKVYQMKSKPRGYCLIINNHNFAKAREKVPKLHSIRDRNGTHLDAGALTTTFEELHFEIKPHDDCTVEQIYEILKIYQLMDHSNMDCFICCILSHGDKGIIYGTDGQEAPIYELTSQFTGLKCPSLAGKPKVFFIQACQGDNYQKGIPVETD", "sequence (Q14790 385-479 limits assumed)": "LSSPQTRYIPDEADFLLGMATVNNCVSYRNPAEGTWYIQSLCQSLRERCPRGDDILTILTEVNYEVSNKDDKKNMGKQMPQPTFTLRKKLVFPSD", "assay": "Reaction Biology caspase panel", "type": "biochemical", "conditions": "read-out: Caspase 8 IC50; (Z-LEHD)2-R110 substrate; three separate experiments"}, "Caspase 4 [4]": {"molecular_target": "T2, Caspase 4", "conditions": "read-out: Ki caspase 4; cited from earlier work"}, "Caspase 6 [5]": {"molecular_target": "T3, Caspase 6", "conditions": "read-out: Ki caspase 6; cited from earlier work"}, "Caspase 3 [6]": {"molecular_target": "T1, Caspase 3", "conditions": "cited from earlier work"}}}
{"smiles": "CC(C)(C)[C@H](NC(=O)c1ccc(N)c(Cl)c1)C(=O)N1CCC[C@H]1C(=O)N[C@H](C=O)CC(=O)O", "note": "[Compound 2b, reference compound]", "values": [{"measurement": "IC50", "setting": "Caspase 3 [1]", "value": "> 10000", "unit": "nM"}, {"measurement": "IC50", "setting": "Caspase 4 [2]", "value": 14.5, "unit": "nM"}, {"measurement": "IC50", "setting": "Caspase 6 [3]", "value": "> 10000", "unit": "nM"}, {"measurement": "IC50", "setting": "Caspase 8", "value": 3.3, "unit": "nM"}, {"measurement": "Ki", "setting": "Caspase 4 [4]", "value": "< 1", "unit": "nM"}, {"measurement": "Ki", "setting": "Caspase 6 [5]", "value": 560, "unit": "nM"}, {"measurement": "activity against caspase 3", "setting": "Caspase 3 [6]", "value": "little activity"}]}
